Test results as given in PubChem BioAssay (NCI).
Several values for one entry are separate records, joined by “and”; a condition that tells them apart may be missing. Identical values can stand only once.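 Interpolation was linear, between the two tested concentrations surrounding the appropriate level; five concentrations were tested over 48 hours in 96-well plates. GI50 is the concentration that inhibits growth by half. At the TGI there is no net growth.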

Columns and labels:
Experiment in all cases: NCI tumour cell line growth inhibition, 48 h
786-0 renal = test system: 786-0 renal
COLO 205 colon = test system: COLO 205 colon
HL-60(TB) leukemia = test system: HL-60(TB) leukemia
LOX IMVI melanoma = test system: LOX IMVI melanoma
MALME-3M melanoma = test system: MALME-3M melanoma
MDA-MB-435 = test system: MDA-MB-435
RXF 393 renal = test system: RXF 393 renal
SF-295 CNS = test system: SF-295 CNS
SN12C renal = test system: SN12C renal
UACC-62 melanoma = test system: UACC-62 melanoma

SMILES | GI50 (786-0 renal) [µM] | TGI (786-0 renal) [µM] | GI50 (COLO 205 colon) | TGI (COLO 205 colon) | GI50 (HL-60(TB) leukemia) | TGI (HL-60(TB) leukemia) | GI50 (LOX IMVI melanoma) [µM] | TGI (LOX IMVI melanoma) [µM] | GI50 (MALME-3M melanoma) | TGI (MALME-3M melanoma) | GI50 (MDA-MB-435) [µM] | TGI (MDA-MB-435) [µM] | GI50 (RXF 393 renal) | TGI (RXF 393 renal) | GI50 (SF-295 CNS) | TGI (SF-295 CNS) | GI50 (SN12C renal) [µM] | TGI (SN12C renal) [µM] | GI50 (UACC-62 melanoma) | TGI (UACC-62 melanoma)
C#Cc1cccc(NC(=O)Nc2cccc(NC(=O)CCl)c2)c1 | 25 | > 82.5 | 58.7 µM | > 82.5 µM | 18.6 µM | 73.9 µM | 13.2 | 27 | 20.7 µM | > 82.5 µM | 24.2 | > 82.5 | 13.4 µM | 63.6 µM | > 82.5 µM | > 82.5 µM | 17.3 | 49.9 | 33.1 µM | > 82.5 µM
CCN(CC)CCC(CNc1c2ccc(Cl)cc2nc2ccc(OC)cc12)c1ccccc1 (stereo unspecified) | 1.38 | 3.11 | 1.09 µM | 2.28 µM | 1.87 µM | 4.71 µM | 1 | 2.39 | 1.87 µM | 3.56 µM | 1.5 | 3.09 | 1.23 µM | 2.68 µM | 1.41 µM | 3.02 µM | 1.15 | 4.98 | 1.58 µM | 3.06 µM
O=C(CN1C(=O)c2ccccc2C1=O)NC1(C(=O)O)CCCC1 | – | > 100 | – | > 100 µM | – | > 100 µM | – | > 100 | – | > 100 µM | – | > 100 | – | > 100 µM | – | > 100 µM | – | > 100 | – | > 100 µM
COC(=O)[C@@H](C)C[C@H](Cc1ccccc1)NC(=O)c1cccc([C@@H](C[C@H](C(C)C)N(C)C(=O)[C@@H](NC(=O)[C@H]2CCCCN2C)C(C)C)OC(C)=O)n1 | 0.00583 | > 16.7 | – | – | < 0.00167 µM | 0.00181 µM | 0.00495 | > 16.7 | < 0.00167 µM | > 16.7 µM | < 0.00167 | 0.0881 | < 0.00167 µM | > 16.7 µM | < 0.00167 µM | 0.0142 µM | 0.00266 | > 16.7 | < 0.00167 µM | > 16.7 µM
C=CC(=O)N1CC[C@@H](Oc2nc(Nc3ccc(N4CCC(N5CCN(C)CC5)CC4)cc3)c(C(N)=O)nc2CC)C1 | > 100 | > 100 | > 100 µM | > 100 µM | > 100 µM | > 100 µM | > 100 | > 100 | > 100 µM | > 100 µM | > 100 | > 100 | > 100 µM | > 100 µM | > 100 µM | > 100 µM | > 100 | > 100 | > 100 µM | > 100 µM
COc1cc2c(c(OC)c1OC)-c1c(c3ccc([N+](=O)[O-])cc3c(=O)n1CCCN=[N+]=[N-])C2=O | 15.4 | 43.8 | > 100 µM | > 100 µM | > 100 µM | > 100 µM | 28.5 | > 100 | 23.2 µM | 96.9 µM | > 100 | > 100 | 4.81 µM | 47.3 µM | 18.5 µM | > 100 µM | 30.4 | > 100 | 32.5 µM | > 100 µM
CCN(CC)CCCC(C)NC(=S)N/N=C(\C)c1ccccn1 (stereo unspecified) | 2.83 | 12 | 3.25 µM | > 100 µM | 1.39 µM | 6.02 µM | 2.63 | > 100 | 3.96 µM | > 100 µM | 5.17 | > 100 | 2.14 µM | 6.81 µM | 4.38 µM | > 100 µM | 4.14 | > 100 | 3.02 µM | > 100 µM
COc1ccc(C(=O)CC(Cl)=C(Cl)Cl)cc1 | 21.7 | 44.7 | 25.6 µM | 61.5 µM | 34.2 µM | 95 µM | 19.2 | 43.4 | 20.4 µM | 43 µM | 24.8 | 62.7 | 32 µM | 97.1 µM | 59.9 µM | > 100 µM | 34.6 | > 100 | 21.7 µM | 49.9 µM
CCCCCCCCCCCCOC1C(C(COC2OC(C(O)CO)C3OC(C)(C)OC23)OC(=O)Nc2ccc([N+](=O)[O-])cc2)OC2OC(C)(C)OC21 (stereo unspecified) | 1.7 | 3.15 | 7.28 µM | 23.9 µM | 3.36 µM | 8.92 µM | 2 | 3.79 | 3.16 µM | 9.64 µM | 1.84 | 3.68 | 2.71 µM | 6.57 µM | 2.21 µM | 5.48 µM | 1.78 | 3.52 | 2.06 µM | 4.61 µM
C=C1C(=O)O[C@H]2[C@H]1CC/C(Cn1cc(CNC(=O)c3cc4ccccc4[nH]3)nn1)=C\CC[C@@]1(C)O[C@@H]21 | 2.96 | 9.61 | 2.13 µM | 4.48 µM | 2.45 µM | 5.79 µM | 1.82 | 4.06 | 1.75 µM | 3.55 µM | 2.82 | 9.7 | 2.16 µM | 4.28 µM | 18.9 µM | 39 µM | 1.97 | 4.66 | 1.57 µM | 3.33 µM
COc1cc2c(cc1Nc1nc(Nc3ccsc3C(N)=O)c3cc[nH]c3n1)N(C(=O)CN(C)C)CCC2 | 3.13 | 6.95 | < 0.0025 µM | 0.394 µM | 0.00552 µM | 1.09 µM | 0.58 | 3.66 | 2.58 µM | 6.24 µM | 0.0499 | 0.489 | 0.612 µM | 3.34 µM | 0.974 µM | 4.8 µM | 3.67 | 11.8 | 0.889 µM | 4.2 µM
C[CH2][Ge]1([CH2]C)[CH2]CC2(CCN(CCCN(C)C)C2)C[CH2]1 | 1.43 | 2.87 | 0.39 µM and 1.29 µM | 1.12 µM and 1.77 µM | 0.312 µM and 1.21 µM | 1.61 µM and 1.79 µM | – | – | 1.05 µM and 2.65 µM | 1.96 µM and 4.33 µM | 0.289 | 0.843 | 1.71 µM and 1.21 µM | 4.29 µM and 3.4 µM | 1.7 µM and 2.42 µM | 3.17 µM and 3.67 µM | 1.38 | 4.62 | 0.875 µM and 1.57 µM | 1.78 µM and 3.19 µM
